How the values were obtained:
[1] = tested on: Tyrosine-protein kinase ABL1 (Homo sapiens), P00519 [E255K]; conditions: Compound concentration 1000.0 nM
[2] = target: T1, Megakaryocyte-associated tyrosine-protein kinase (Homo sapiens) (UniProt P42679); conditions: Compound concentration 1000.0 nM
T1 sequence (whole entry): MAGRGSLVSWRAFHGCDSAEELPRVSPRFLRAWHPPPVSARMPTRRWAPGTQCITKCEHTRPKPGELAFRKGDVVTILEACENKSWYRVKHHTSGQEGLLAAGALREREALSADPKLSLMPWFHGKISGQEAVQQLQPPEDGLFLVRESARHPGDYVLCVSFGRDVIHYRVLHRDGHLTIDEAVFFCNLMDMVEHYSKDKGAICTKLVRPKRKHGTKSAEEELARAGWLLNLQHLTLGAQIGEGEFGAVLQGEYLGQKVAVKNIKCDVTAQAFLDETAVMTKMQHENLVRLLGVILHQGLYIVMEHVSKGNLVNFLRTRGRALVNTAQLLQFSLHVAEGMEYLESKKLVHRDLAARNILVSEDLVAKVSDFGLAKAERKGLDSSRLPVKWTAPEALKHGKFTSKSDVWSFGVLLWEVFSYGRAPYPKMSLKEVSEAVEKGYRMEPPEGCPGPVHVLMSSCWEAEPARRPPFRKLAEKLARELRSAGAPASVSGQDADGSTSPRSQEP

[3] = target: T2, Serine/threonine-protein kinase DCLK2 (Homo sapiens) (UniProt Q8N568); conditions: Compound concentration 1000.0 nM
T2 sequence (whole entry): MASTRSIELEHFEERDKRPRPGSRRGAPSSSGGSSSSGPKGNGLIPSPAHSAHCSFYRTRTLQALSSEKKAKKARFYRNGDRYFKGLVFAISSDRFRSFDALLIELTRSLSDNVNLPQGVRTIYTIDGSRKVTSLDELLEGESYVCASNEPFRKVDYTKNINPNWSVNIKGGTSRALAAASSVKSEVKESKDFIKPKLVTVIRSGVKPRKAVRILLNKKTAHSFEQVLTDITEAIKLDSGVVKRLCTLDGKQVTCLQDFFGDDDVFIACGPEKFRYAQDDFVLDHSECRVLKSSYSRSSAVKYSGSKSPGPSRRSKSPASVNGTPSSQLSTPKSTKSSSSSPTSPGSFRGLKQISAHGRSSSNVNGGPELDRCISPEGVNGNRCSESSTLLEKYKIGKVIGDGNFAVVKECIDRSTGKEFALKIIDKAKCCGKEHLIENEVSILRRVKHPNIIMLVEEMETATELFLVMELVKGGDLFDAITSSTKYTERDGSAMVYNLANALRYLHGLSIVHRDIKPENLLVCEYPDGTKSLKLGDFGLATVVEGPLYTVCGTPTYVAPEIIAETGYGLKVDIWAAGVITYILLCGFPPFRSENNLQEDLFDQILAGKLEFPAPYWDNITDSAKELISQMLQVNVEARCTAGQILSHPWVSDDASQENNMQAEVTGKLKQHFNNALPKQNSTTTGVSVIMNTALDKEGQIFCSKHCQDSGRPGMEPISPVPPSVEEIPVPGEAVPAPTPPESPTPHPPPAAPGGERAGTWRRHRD

[4] = target: Mitogen-activated protein kinase 7 (Homo sapiens) (UniProt Q13164); conditions: Compound concentration 1000.0 nM
[5] = tested on: Fibroblast growth factor receptor 3 (Homo sapiens), P22607 [G697C]; conditions: Compound concentration 1000.0 nM
[6] = tested on: eIF-2-alpha kinase GCN2 (Homo sapiens), Q9P2K8 [S808G]; conditions: Compound concentration 1000.0 nM
[7] = target: Mitogen-activated protein kinase kinase kinase kinase 1 (Homo sapiens) (UniProt Q92918); conditions: Compound concentration 1000.0 nM
[8] = target: Myosin light chain kinase (Homo sapiens) (UniProt Q32MK0); conditions: Compound concentration 1000.0 nM
[9] = target: T3, Serine/threonine-protein kinase NLK (Homo sapiens) (UniProt Q9UBE8); conditions: Compound concentration 1000.0 nM
T3 sequence (whole entry): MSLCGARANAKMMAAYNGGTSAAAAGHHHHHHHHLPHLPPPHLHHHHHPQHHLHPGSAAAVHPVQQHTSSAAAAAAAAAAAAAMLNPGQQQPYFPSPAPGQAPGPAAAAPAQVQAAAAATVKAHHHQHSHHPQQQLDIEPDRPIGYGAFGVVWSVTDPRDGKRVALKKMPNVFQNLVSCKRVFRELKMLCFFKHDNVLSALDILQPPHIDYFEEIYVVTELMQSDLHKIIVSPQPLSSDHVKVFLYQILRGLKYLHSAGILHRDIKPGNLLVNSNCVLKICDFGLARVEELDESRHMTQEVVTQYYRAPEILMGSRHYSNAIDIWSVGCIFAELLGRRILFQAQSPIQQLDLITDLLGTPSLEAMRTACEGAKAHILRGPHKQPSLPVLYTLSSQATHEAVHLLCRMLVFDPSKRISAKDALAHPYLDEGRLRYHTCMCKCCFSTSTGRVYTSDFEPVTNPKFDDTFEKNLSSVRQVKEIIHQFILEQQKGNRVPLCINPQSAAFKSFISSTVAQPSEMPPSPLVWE

[10] = target: Cyclin-dependent kinase 18 (Homo sapiens) (UniProt Q07002); conditions: Compound concentration 1000.0 nM
[11] = target: cAMP-dependent protein kinase catalytic subunit alpha (Homo sapiens) (UniProt P17612); conditions: Compound concentration 1000.0 nM
[12] = target: Serine/threonine-protein kinase SIK3 (Homo sapiens) (UniProt Q9Y2K2); conditions: Compound concentration 1000.0 nM
[13] = tested on: Proto-oncogene tyrosine-protein kinase receptor Ret (Homo sapiens), P07949 [V804L]; conditions: Compound concentration 1000.0 nM
[14] = target: Receptor-interacting serine/threonine-protein kinase 2 (Homo sapiens) (UniProt O43353); conditions: Compound concentration 1000.0 nM
[15] = target: D(2) dopamine receptor (Homo sapiens) (UniProt P14416); conditions: Compound concentration 10.0 uM

Chain of Fibroblast growth factor receptor 3 (Homo sapiens), P22607 [G697C] (P22607 whole entry G697C): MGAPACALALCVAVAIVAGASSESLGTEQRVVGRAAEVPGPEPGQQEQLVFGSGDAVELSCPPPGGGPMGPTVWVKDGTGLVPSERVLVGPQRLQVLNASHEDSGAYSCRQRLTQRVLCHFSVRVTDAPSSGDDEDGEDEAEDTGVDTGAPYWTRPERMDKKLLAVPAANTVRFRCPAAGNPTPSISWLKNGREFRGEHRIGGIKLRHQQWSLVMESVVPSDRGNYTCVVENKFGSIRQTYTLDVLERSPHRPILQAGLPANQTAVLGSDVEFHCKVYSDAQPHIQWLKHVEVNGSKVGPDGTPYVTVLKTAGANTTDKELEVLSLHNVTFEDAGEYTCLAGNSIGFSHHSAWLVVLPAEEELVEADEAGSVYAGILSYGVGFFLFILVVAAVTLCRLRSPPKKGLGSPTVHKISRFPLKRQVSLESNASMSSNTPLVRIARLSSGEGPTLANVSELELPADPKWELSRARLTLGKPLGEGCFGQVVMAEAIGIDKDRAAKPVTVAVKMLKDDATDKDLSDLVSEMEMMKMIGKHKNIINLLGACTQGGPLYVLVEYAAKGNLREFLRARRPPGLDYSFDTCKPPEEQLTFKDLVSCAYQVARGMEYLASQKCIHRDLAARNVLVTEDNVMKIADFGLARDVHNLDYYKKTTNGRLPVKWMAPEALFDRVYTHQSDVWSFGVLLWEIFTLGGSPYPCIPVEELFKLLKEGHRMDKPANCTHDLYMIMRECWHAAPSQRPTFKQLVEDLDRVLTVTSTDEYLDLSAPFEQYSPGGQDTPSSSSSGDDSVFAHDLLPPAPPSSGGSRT
Chain of Mitogen-activated protein kinase kinase kinase kinase 1 (Homo sapiens) (Q92918 whole entry, looked up): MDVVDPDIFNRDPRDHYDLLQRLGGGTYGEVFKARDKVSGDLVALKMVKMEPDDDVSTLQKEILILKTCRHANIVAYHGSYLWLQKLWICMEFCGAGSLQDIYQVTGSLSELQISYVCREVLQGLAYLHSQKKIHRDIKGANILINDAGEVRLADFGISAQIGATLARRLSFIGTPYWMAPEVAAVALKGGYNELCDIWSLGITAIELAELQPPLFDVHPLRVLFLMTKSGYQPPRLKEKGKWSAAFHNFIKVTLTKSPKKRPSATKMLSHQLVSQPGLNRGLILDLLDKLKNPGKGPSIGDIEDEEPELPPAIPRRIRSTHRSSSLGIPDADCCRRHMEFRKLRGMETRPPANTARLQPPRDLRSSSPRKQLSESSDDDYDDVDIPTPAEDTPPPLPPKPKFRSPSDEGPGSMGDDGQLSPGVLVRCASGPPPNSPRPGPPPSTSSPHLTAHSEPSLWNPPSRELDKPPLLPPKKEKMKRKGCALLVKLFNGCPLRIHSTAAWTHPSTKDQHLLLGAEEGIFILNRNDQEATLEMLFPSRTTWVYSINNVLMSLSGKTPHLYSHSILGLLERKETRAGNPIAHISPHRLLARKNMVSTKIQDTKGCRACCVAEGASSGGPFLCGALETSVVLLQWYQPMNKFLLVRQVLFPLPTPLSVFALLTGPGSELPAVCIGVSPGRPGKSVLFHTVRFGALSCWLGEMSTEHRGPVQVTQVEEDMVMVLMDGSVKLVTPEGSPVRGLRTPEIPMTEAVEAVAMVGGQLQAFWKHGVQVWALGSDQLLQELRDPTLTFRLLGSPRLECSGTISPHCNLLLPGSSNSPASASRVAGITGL
Chain of Receptor-interacting serine/threonine-protein kinase 2 (Homo sapiens) (O43353 whole entry): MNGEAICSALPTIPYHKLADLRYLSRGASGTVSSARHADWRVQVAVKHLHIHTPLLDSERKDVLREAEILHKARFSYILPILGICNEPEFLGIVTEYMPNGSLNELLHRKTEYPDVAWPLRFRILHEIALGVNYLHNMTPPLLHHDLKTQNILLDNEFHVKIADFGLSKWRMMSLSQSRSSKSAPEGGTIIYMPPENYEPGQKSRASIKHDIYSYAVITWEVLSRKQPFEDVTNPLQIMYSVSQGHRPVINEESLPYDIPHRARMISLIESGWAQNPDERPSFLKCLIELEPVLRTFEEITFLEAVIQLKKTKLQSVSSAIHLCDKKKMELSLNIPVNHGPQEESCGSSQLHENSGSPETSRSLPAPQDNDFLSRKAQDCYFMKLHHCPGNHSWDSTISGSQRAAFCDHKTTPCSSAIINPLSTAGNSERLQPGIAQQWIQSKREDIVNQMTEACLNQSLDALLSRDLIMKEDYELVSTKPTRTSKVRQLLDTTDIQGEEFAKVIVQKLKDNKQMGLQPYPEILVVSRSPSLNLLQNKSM
Chain of eIF-2-alpha kinase GCN2 (Homo sapiens), Q9P2K8 [S808G] (Q9P2K8 whole entry S808G): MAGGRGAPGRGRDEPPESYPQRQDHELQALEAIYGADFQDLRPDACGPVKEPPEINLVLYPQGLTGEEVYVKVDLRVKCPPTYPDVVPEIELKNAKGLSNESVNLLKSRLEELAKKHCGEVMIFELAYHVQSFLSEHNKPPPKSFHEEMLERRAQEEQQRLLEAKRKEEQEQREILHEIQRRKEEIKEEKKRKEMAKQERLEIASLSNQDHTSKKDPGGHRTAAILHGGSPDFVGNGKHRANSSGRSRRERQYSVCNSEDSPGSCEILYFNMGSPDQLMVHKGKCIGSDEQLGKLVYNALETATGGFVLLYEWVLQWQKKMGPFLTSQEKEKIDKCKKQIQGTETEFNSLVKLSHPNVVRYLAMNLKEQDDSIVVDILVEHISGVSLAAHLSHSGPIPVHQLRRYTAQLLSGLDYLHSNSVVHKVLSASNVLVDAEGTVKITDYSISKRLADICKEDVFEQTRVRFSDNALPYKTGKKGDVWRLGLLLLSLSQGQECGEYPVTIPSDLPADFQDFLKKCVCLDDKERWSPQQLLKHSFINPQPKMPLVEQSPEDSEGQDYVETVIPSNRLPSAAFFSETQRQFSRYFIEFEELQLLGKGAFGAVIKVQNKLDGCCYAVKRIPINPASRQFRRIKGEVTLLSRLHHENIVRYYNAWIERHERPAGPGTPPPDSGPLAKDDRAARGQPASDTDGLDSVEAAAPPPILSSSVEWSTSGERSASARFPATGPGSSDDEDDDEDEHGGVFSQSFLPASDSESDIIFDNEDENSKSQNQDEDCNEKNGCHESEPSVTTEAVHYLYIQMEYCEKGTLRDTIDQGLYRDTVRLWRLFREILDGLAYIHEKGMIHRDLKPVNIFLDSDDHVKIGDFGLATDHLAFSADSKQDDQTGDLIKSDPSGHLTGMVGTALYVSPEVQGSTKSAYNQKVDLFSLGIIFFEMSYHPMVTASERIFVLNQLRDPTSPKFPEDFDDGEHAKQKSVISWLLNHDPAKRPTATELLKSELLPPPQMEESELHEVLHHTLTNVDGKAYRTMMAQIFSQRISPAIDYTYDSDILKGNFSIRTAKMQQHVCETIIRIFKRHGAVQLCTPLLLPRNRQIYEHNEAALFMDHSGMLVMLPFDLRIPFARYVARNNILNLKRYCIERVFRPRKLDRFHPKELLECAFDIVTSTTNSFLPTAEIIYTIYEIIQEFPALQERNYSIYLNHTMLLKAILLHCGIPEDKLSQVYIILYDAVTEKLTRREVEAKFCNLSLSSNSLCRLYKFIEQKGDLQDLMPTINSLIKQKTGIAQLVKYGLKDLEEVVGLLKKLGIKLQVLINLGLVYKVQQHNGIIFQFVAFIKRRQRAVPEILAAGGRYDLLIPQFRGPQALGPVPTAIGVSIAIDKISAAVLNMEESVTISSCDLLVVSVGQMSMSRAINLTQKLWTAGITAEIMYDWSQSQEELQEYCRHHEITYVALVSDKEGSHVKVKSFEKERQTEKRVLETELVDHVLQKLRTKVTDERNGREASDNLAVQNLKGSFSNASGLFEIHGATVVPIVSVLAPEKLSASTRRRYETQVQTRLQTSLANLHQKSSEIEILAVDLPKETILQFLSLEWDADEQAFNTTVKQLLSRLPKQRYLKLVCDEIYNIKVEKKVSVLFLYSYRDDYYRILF
Chain of Proto-oncogene tyrosine-protein kinase receptor Ret (Homo sapiens), P07949 [V804L] (P07949 whole entry V804L): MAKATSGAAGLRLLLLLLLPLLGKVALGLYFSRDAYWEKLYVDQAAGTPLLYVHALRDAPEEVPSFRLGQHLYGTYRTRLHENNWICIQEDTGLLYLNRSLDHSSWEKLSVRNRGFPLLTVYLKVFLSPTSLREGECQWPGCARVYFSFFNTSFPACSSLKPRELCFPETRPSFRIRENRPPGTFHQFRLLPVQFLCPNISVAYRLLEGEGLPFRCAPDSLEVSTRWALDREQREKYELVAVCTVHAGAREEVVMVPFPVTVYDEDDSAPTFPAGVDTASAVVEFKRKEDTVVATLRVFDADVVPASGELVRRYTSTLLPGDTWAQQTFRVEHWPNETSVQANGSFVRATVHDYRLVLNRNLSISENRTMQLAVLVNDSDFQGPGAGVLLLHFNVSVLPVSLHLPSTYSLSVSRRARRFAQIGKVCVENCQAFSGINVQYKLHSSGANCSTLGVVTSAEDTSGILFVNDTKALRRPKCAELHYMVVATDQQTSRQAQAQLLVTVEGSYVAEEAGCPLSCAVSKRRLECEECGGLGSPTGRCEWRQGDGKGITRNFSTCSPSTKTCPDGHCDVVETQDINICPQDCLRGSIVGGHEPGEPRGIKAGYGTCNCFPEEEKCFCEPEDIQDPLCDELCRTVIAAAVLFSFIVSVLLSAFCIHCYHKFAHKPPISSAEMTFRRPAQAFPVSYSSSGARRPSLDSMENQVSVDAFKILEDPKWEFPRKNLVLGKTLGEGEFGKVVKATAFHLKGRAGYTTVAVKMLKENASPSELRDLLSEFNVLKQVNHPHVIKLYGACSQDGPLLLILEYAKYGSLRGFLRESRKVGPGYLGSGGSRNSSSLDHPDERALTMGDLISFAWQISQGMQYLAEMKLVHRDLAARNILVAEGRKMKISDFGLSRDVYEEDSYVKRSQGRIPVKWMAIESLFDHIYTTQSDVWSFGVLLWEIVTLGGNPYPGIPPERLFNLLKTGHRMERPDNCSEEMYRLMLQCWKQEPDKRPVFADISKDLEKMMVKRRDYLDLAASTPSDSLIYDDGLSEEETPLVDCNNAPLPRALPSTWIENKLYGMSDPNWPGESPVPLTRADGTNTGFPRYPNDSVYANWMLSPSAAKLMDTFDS

CN(C)C(=O)Cn1cc(-c2nc(C3(c4ccc(-c5cnc(N)nc5)cc4)CC3)no2)cn1 [BI 0153]
inactive: residual activity [1] 100% | residual activity [2] 77% | residual activity [3] 96% | residual activity [4] 97% | residual activity [5] 100% | residual activity [6] 83% | residual activity [7] 81% | residual activity [8] 100% | residual activity [9] 94% | residual activity [10] 83% | residual activity [11] 91% | residual activity [12] 100% | residual activity [13] 100% | residual activity [14] 100% | inhibition [15] 16.1%

CN(C)C(=O)Cn1cc(-c2nc([C@@](C)(c3ccc(-c4cnc(N)nc4)cc3)C3CC3)no2)cn1 [BI 665915]
inactive: residual activity [1] 95% | residual activity [2] 77% | residual activity [3] 91% | residual activity [4] 90% | residual activity [5] 89% | residual activity [6] 100% | residual activity [7] 100% | residual activity [8] 100% | residual activity [9] 95% | residual activity [10] 100% | residual activity [11] 87% | residual activity [12] 70% | residual activity [13] 93% | residual activity [14] 87% | inhibition [15] 13.6%

Source: ChEMBL document CHEMBL4507276 (2021)
